Work on `O=c1cc(CO)occ1O` yielded a solubility (mole fraction) (in 1,4-dioxane, 288.15 K) of 0.00698, a solubility (mole fraction) (in 1,4-dioxane, 293.15 K) of 0.0086 and a solubility (mole fraction) (in 1,4-dioxane, 298.15 K) of 0.0103. It also gave a solubility (mole fraction) (in 1,4-dioxane, 303.15 K) of 0.0121, a solubility (mole fraction) (in 1,4-dioxane, 308.15 K) of 0.0153 and a solubility (mole fraction) (in 1,4-dioxane, 313.15 K) of 0.018. For the same compound, the solubility (mole fraction) (in 1,4-dioxane, 318.15 K) was 0.0209, the solubility (mole fraction) (in 2-ethoxyethanol, 278.15 K) was 0.0134 and the solubility (mole fraction) (in 2-ethoxyethanol, 283.15 K) was 0.015. The solubility (mole fraction) (in 2-ethoxyethanol, 288.15 K) was 0.0177, the solubility (mole fraction) (in 2-ethoxyethanol, 293.15 K) was 0.0204 and the solubility (mole fraction) (in 2-ethoxyethanol, 298.15 K) was 0.0233. For the same compound, the solubility (mole fraction) (in 2-ethoxyethanol, 303.15 K) was 0.0261, the solubility (mole fraction) (in 2-ethoxyethanol, 308.15 K) was 0.03 and the solubility (mole fraction) (in 2-ethoxyethanol, 313.15 K) was 0.034. It also gave a solubility (mole fraction) (in 2-ethoxyethanol, 318.15 K) of 0.0381, a solubility (mole fraction) (in 2-ethoxyethanol, 323.15 K) of 0.0435 and a solubility (mole fraction) (in 2-methoxyethanol, 278.15 K) of 0.0181. The solubility (mole fraction) (in 2-methoxyethanol, 283.15 K) was 0.0214, the solubility (mole fraction) (in 2-methoxyethanol, 288.15 K) was 0.0252 and the solubility (mole fraction) (in 2-methoxyethanol, 293.15 K) was 0.0287. For the same compound, the solubility (mole fraction) (in 2-methoxyethanol, 298.15 K) was 0.0331, the solubility (mole fraction) (in 2-methoxyethanol, 303.15 K) was 0.0377 and the solubility (mole fraction) (in 2-methoxyethanol, 308.15 K) was 0.0431. It also gave a solubility (mole fraction) (in 2-methoxyethanol, 313.15 K) of 0.0491, a solubility (mole fraction) (in 2-methoxyethanol, 318.15 K) of 0.0559 and a solubility (mole fraction) (in 2-methoxyethanol, 323.15 K) of 0.0625. For the same compound, the solubility (mole fraction) (in DMAc, 278.15 K) was 0.148, the solubility (mole fraction) (in DMAc, 283.15 K) was 0.157 and the solubility (mole fraction) (in DMAc, 288.15 K) was 0.165. For the same compound, the solubility (mole fraction) (in DMAc, 293.15 K) was 0.174, the solubility (mole fraction) (in DMAc, 298.15 K) was 0.184 and the solubility (mole fraction) (in DMAc, 303.15 K) was 0.194. The solubility (mole fraction) (in DMAc, 308.15 K) was 0.205, the solubility (mole fraction) (in DMAc, 313.15 K) was 0.216 and the solubility (mole fraction) (in DMAc, 318.15 K) was 0.228. It also gave a solubility (mole fraction) (in DMAc, 323.15 K) of 0.24, a solubility (mole fraction) (in DMF, 278.15 K) of 0.0977 and a solubility (mole fraction) (in DMF, 283.15 K) of 0.106. For the same compound, the solubility (mole fraction) (in DMF, 288.15 K) was 0.114, the solubility (mole fraction) (in DMF, 293.15 K) was 0.123 and the solubility (mole fraction) (in DMF, 298.15 K) was 0.135. The solubility (mole fraction) (in DMF, 303.15 K) was 0.147, the solubility (mole fraction) (in DMF, 308.15 K) was 0.157 and the solubility (mole fraction) (in DMF, 313.15 K) was 0.168. For the same compound, the solubility (mole fraction) (in DMF, 318.15 K) was 0.18, the solubility (mole fraction) (in DMF, 323.15 K) was 0.193 and the solubility (mole fraction) (in DMSO, 293.15 K) was 0.238. It also gave a solubility (mole fraction) (in DMSO, 298.15 K) of 0.249, a solubility (mole fraction) (in DMSO, 303.15 K) of 0.259 and a solubility (mole fraction) (in DMSO, 308.15 K) of 0.268. For the same compound, the solubility (mole fraction) (in DMSO, 313.15 K) was 0.28, the solubility (mole fraction) (in DMSO, 318.15 K) was 0.292 and the solubility (mole fraction) (in DMSO, 323.15 K) was 0.303. It also gave a solubility (mole fraction) (in DMSO, 328.15 K) of 0.316, a solubility (mole fraction) (in DMSO, 333.15 K) of 0.331 and a solubility (mole fraction) (in NMP, 278.15 K) of 0.17. For the same compound, the solubility (mole fraction) (in NMP, 283.15 K) was 0.179, the solubility (mole fraction) (in NMP, 288.15 K) was 0.185 and the solubility (mole fraction) (in NMP, 293.15 K) was 0.193. The solubility (mole fraction) (in NMP, 298.15 K) was 0.201, the solubility (mole fraction) (in NMP, 303.15 K) was 0.208 and the solubility (mole fraction) (in NMP, 308.15 K) was 0.216. The solubility (mole fraction) (in NMP, 313.15 K) was 0.223, the solubility (mole fraction) (in NMP, 318.15 K) was 0.232 and the solubility (mole fraction) (in NMP, 323.15 K) was 0.241. For the same compound, the solubility (mole fraction) (in acetic acid, 293.15 K) was 0.0139, the solubility (mole fraction) (in acetic acid, 298.15 K) was 0.0169 and the solubility (mole fraction) (in acetic acid, 303.15 K) was 0.0204. It also gave a solubility (mole fraction) (in acetic acid, 308.15 K) of 0.0246, a solubility (mole fraction) (in acetic acid, 313.15 K) of 0.0293 and a solubility (mole fraction) (in acetic acid, 318.15 K) of 0.0353. For the same compound, the solubility (mole fraction) (in acetic acid, 323.15 K) was 0.0425, the solubility (mole fraction) (in acetic acid, 328.15 K) was 0.0511 and the solubility (mole fraction) (in acetic acid, 333.15 K) was 0.0613. It also gave a solubility (mole fraction) (in acetone, 278.15 K) of 0.00224, a solubility (mole fraction) (in acetone, 283.15 K) of 0.00276 and a solubility (mole fraction) (in acetone, 288.15 K) of 0.00324. It also gave a solubility (mole fraction) (in acetone, 293.15 K) of 0.00383, a solubility (mole fraction) (in acetone, 298.15 K) of 0.00455 and a solubility (mole fraction) (in acetone, 303.15 K) of 0.00556. The solubility (mole fraction) (in acetone, 308.15 K) was 0.00686, the solubility (mole fraction) (in acetone, 313.15 K) was 0.008 and the solubility (mole fraction) (in acetone, 318.15 K) was 0.00932. For the same compound, the solubility (mole fraction) (in acetone, 323.15 K) was 0.0106, the solubility (mole fraction) (in ethanol, 278.15 K) was 0.0031 and the solubility (mole fraction) (in ethanol, 283.15 K) was 0.00374. The solubility (mole fraction) (in ethanol, 288.15 K) was 0.00459, the solubility (mole fraction) (in ethanol, 293.15 K) was 0.00595 and the solubility (mole fraction) (in ethanol, 298.15 K) was 0.00739. It also gave a solubility (mole fraction) (in ethanol, 303.15 K) of 0.00893, a solubility (mole fraction) (in ethanol, 308.15 K) of 0.0108 and a solubility (mole fraction) (in ethanol, 313.15 K) of 0.013. It also gave a solubility (mole fraction) (in ethanol, 318.15 K) of 0.0158, a solubility (mole fraction) (in ethanol, 323.15 K) of 0.0191 and a solubility (mole fraction) (in ethyl acetate, 278.15 K) of 0.000804. For the same compound, the solubility (mole fraction) (in ethyl acetate, 283.15 K) was 0.00105, the solubility (mole fraction) (in ethyl acetate, 288.15 K) was 0.00137 and the solubility (mole fraction) (in ethyl acetate, 293.15 K) was 0.00169. The solubility (mole fraction) (in ethyl acetate, 298.15 K) was 0.00201, the solubility (mole fraction) (in ethyl acetate, 303.15 K) was 0.00242 and the solubility (mole fraction) (in ethyl acetate, 308.15 K) was 0.00296. The solubility (mole fraction) (in ethyl acetate, 313.15 K) was 0.00338, the solubility (mole fraction) (in ethyl acetate, 318.15 K) was 0.00411 and the solubility (mole fraction) (in ethyl acetate, 323.15 K) was 0.00497. The solubility (mole fraction) (in methanol, 278.15 K) was 0.00492, the solubility (mole fraction) (in methanol, 283.15 K) was 0.00606 and the solubility (mole fraction) (in methanol, 288.15 K) was 0.00737. The solubility (mole fraction) (in methanol, 293.15 K) was 0.00891, the solubility (mole fraction) (in methanol, 298.15 K) was 0.011 and the solubility (mole fraction) (in methanol, 303.15 K) was 0.0132. For the same compound, the solubility (mole fraction) (in methanol, 308.15 K) was 0.0156, the solubility (mole fraction) (in methanol, 313.15 K) was 0.0189 and the solubility (mole fraction) (in methanol, 318.15 K) was 0.0223. For the same compound, the solubility (mole fraction) (in methanol, 323.15 K) was 0.0267, the solubility (mole fraction) (in n-propanol, 278.15 K) was 0.00225 and the solubility (mole fraction) (in n-propanol, 283.15 K) was 0.00281. The solubility (mole fraction) (in n-propanol, 288.15 K) was 0.00339, the solubility (mole fraction) (in n-propanol, 293.15 K) was 0.00423 and the solubility (mole fraction) (in n-propanol, 298.15 K) was 0.00524. For the same compound, the solubility (mole fraction) (in n-propanol, 303.15 K) was 0.00646, the solubility (mole fraction) (in n-propanol, 308.15 K) was 0.00782 and the solubility (mole fraction) (in n-propanol, 313.15 K) was 0.00964. It also gave a solubility (mole fraction) (in n-propanol, 318.15 K) of 0.0116, a solubility (mole fraction) (in n-propanol, 323.15 K) of 0.0139 and a solubility (mole fraction) (in water, 278.15 K) of 0.00216. The solubility (mole fraction) (in water, 283.15 K) was 0.00276, the solubility (mole fraction) (in water, 288.15 K) was 0.00353 and the solubility (mole fraction) (in water, 293.15 K) was 0.0043. It also gave a solubility (mole fraction) (in water, 298.15 K) of 0.00553, a solubility (mole fraction) (in water, 303.15 K) of 0.00679 and a solubility (mole fraction) (in water, 308.15 K) of 0.00873. For the same compound, the solubility (mole fraction) (in water, 313.15 K) was 0.0113, the solubility (mole fraction) (in water, 318.15 K) was 0.0143 and the solubility (mole fraction) (in water, 323.15 K) was 0.0185.

Source: BigSolDB 2.1
